Results on three molecules are retold here after publication PMC6193120, “Substrate Specificity Analysis of Dihydrofolate/Dihydromethanopterin Reductase Homologs in Methylotrophic α-Proteobacteria” (Frontiers in Microbiology, 2018).

Series [1] deals with T1, Hni-DAGK-H6.
T1 construct: gene dmrA
Briefly: NADPH oxidation at […] nm, anaerobic. It is filed as biochemical, Hyphomicrobium nitrativorans. As to conditions: 0.1 mM NADPH, pH 5.3, sodium acetate; H2SPT from partially oxidized Methanosarcina thermophila H4SPT fraction; read-out: KM(app).

The test system of series [2] is T2, Mno-DAGK-H6.
T2 construct: gene dmrA
In words: NADPH oxidation at […] nm, anaerobic. The format is biochemical, Methylobacterium nodulans. The settings on record: 0.1 mM NADPH, pH 5.3, sodium acetate; H2SPT from partially oxidized Methanosarcina thermophila H4SPT fraction; read-out: KM(app).

Series [3] addresses T3, M. extorquens AM1 DmrA-H4 (Methylorubrum extorquens, UniProt C5B2R8).
T3 sequence (C5B2R8 1-135): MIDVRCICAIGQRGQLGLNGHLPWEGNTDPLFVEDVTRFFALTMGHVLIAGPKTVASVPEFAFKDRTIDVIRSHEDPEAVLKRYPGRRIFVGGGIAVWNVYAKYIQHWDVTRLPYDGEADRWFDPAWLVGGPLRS
In words: NADPH oxidation at […] nm, anaerobic. It is filed as biochemical. The settings on record: 0.1 mM NADPH, pH 5.3, sodium acetate; H2SPT from partially oxidized Methanosarcina thermophila H4SPT fraction; read-out: KM(app).

Substrate in series [4]: Nc1nc2c(c(=O)[nH]1)N=C(CNc1ccc(C(=O)N[C@@H](CCC(=O)O)C(=O)O)cc1)CN2
In words: purified protein. The format is biochemical, Methylorubrum extorquens. The settings on record: 100 μM NADPH, pH 6.8, room temperature.

Take dihydrosarcinapterin: the values for the Km in series [1], in series [2] and in series [3] were 102 ± 73 µM, 695 ± 176 µM and 193 ± 71 µM, respectively.

B1: H6-DfrA (Methylorubrum extorquens) (protein)
chain: MAQPRISLVAAIARNGVIGRDNSLAWRLSSDLKRFKALTMGKPILMGRKTWDSIGRPLPGRRSLVITRDRSLALSDVTVVHDWDEALAAAGDDELMVVGGAEIYRLALPHADRLHLTEVDAAPEGDAYFPPFDRSLFRETLREAHGPGERDEFAFQFVDLERLGSR
B1: the Km in series [4] came out at 14 ± 3.0 µM.

B2: H6-DfrB (Methylorubrum extorquens) (protein)
chain: MDVRLIAAIGRRGQLGLEGDMPWGRSFPDDLRRFRELTAGGIVLVGWRTWPTVERLQGTHGRRFVVDDVKLPPTGMLVRLQEPDASGTRDRPVWIAGGAKTYARYARFVDEFVVRRVPYDGPADTWMPDLLGTPEADRTDGPYTGRSPTDKQWRPGCRRLRDR
notes: megaplasmid-encoded
With B2, in series [4], the Km is 18 ± 8.9 µM.

Broadly, the Km is the concentration of substrate that gives half-maximal velocity.
